Source: ChEMBL document CHEMBL5465560, “Selectivity Literature for EUbOPEN Chemogenomic Library” (2024)
Changes are numbered by the printed parent chain.

Experiments:
Format in all cases: cell-based
Conditions in all cases: at 1 µM
[1] = test system: T1, Receptor-type tyrosine-protein kinase FLT3 (Homo sapiens), P36888 [D835Y]; test: (§1) Selectivity interaction (Ambit KINOMEscan and KiNATiv profiling in Jurkat cells) EUB0000090b FLT3
T1 sequence (whole entry): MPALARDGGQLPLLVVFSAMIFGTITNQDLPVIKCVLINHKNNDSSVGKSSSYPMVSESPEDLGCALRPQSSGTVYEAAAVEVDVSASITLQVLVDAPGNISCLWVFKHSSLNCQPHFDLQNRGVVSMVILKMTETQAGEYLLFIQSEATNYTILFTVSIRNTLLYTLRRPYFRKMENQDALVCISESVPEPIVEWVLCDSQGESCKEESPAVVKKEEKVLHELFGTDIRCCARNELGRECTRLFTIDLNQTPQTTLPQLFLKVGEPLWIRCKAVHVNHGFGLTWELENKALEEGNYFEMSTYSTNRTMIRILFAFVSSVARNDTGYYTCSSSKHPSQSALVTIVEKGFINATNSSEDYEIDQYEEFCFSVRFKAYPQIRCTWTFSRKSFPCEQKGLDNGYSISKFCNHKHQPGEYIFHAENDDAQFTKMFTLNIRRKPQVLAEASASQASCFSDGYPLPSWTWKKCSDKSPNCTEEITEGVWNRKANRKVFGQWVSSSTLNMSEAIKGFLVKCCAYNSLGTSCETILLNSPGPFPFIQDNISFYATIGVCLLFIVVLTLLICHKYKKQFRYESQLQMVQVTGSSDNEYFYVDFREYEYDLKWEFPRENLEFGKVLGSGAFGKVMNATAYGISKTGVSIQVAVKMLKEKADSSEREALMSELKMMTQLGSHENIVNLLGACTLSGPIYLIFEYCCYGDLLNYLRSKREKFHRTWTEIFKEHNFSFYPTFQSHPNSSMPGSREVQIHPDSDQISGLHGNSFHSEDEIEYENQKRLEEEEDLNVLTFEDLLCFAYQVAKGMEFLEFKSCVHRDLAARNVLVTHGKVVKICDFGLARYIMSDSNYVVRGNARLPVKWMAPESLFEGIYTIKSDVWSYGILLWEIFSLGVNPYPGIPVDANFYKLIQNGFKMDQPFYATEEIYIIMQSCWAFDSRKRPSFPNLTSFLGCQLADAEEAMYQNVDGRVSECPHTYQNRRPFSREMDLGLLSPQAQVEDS

[2] = test system: T2, Receptor-type tyrosine-protein kinase FLT3 (Homo sapiens), P36888 [R834Q]; test: as §1
T2 sequence (whole entry): T1 sequence (whole entry) with R834Q, Y835D

[3] = test system: T3, Receptor-type tyrosine-protein kinase FLT3 (Homo sapiens), P36888 [K663Q]; test: as §1
T3 sequence (whole entry): T1 sequence (whole entry) with K663Q, Y835D

[4] = test system: Receptor-type tyrosine-protein kinase FLT3 (Homo sapiens), P36888 [UNDEFINED MUTATION]; test: as §1

For `CN(C)C/C=C/C(=O)Nc1ccc(C(=O)N2CCCC(Nc3ncc(Cl)c(-c4c[nH]c5ccccc45)n3)C2)cc1` (centres undefined), the % of control [1] was 76%, the % of control [2] was 92% and the % of control [3] was 84%. The % of control [4] was 86%.
